Experimental data from patent EP4722209A1 (Beijing Shenogen Pharma Group, priority 2023, dated 2024).

Molecular target: T1, ERα (Homo sapiens, UniProt P03372)
T1 construct: host or cells: MCF-7
T1 sequence (P03372 1-595): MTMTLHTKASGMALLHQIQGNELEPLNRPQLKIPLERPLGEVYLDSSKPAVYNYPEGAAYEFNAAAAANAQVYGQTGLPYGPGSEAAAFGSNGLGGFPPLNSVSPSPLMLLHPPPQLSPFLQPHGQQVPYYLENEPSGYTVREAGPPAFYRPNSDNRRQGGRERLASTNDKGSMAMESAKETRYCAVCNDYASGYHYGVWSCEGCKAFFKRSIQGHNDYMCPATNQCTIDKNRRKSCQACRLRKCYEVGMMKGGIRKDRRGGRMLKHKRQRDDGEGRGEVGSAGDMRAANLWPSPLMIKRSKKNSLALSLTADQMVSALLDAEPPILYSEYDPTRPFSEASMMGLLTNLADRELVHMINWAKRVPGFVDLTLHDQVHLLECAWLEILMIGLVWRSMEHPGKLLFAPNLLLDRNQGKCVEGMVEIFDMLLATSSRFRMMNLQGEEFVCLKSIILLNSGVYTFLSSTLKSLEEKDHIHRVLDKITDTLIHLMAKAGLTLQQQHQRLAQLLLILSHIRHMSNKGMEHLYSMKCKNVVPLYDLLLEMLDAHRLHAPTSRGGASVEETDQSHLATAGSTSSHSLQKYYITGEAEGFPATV
Experiment: ER degradation activity in MCF-7 cells (Western blot, grayscale intensity)
Assay type: cell-based
Details: 6 hours treatment, 1 nM to 100 nM, concentration required to degrade 50% of the target protein
Method: ERα-positive human breast cancer cells MCF-7 (ATCC, HTB-22) were cultured with EMEM medium (ATCC, catalog number 30-2003) containing 10% fetal bovine serum (Thermo Fisher, catalog number 10099141) and 10 µg/mL bovine insulin in 25 cm^2 or 75 cm^2 plastic tissue culture flasks in a 37 °C incubator with 5% CO2. The cells were passaged 2 to 3 times per week. MCF-7 cells were seeded in 6-well plate at 1×10^6 cells/well with 1.8 mL culture medium per well, and cultured in a 37 °C incubator with 95% air and 5% CO2. After 24 hours, the test compounds were added: the compounds were serially diluted 10-fold in DMSO starting from 10 mM (dissolved in DMSO) to prepare gradient stock solutions. A complete culture medium containing 1% DMSO was prepared for further dilution, temporarily named as the "dilution buffer." Working solutions were prepared by diluting each stock solution with 99 times the volume of dilution buffer, that is, by adding 1 µL of the 10 mM stock solution to 99 µL of the dilution buffer and mixing thoroughly.
Finally, […] of the working solution was added to the cell-seeded culture plate. The final concentration of DMSO in the cell culture medium was 0.2%, and the final concentration of the test compounds ranged from 1 nM to 100 nM. The cells were then incubated at 37 °C for 6 hours.
The culture medium was removed, and the cells were washed twice with ice cold PBS. 1 mL of PBS was added to each well, and the cells were collected into EP tubes using a cell scraper, and centrifuged at 4 °C, 4000 rpm for 5 minutes. PBS was aspirated. Total protein was extracted using the Minute™ Mammalian Tissue/Cell Total Protein Extraction Reagent. The protein concentration was measured using the BCA protein assay kit. 30 µg of protein was taken and mixed with 5× SDS-PAGE loading buffer, boiled for 10 minutes, and cooled. The samples were loaded into wells of a precast gel, with constant voltage at 80 V for 30 minutes, and then the voltage was changed to 120 V after the samples entered the resolving gel. The "sandwich" (sponge - filter paper - gel - membrane - filter paper - sponge) was assembled for Bio-Rad's Transblot. Transfer was performed for 1 hour at 0.3 amp at 4 °C. The sample was blocked with 5% fat-free milk for 1 hour, and incubated with Estrogen Receptor alpha Antibody (Thermo Fisher, catalog number MA5-14104) overnight at 4 °C. The membrane was washed with TBST to remove non-specifically bound antibodies, and then incubated with goat anti-mouse IgG-HRP secondary antibody for 1 hour at room temperature, and was visualized using ECL. The protein degradation level was calculated by measuring the grayscale intensity.
The DC50 values (i.e., the concentration of the test compounds required to degrade 50% of the target protein) were calculated and shown in Table 1. A corresponds to a DC50 value below 10 nM, B corresponds to a DC50 value greater than 10 nM and less than 100 nM, and C corresponds to DC50 values greater than 100 nM. Table 1. The DC50 values of exemplary compounds in MCF-7 cells

| Structure (SMILES) | DC50 |
| --- | --- |
| CC1(C)CC(=C(c2ccc(N3CCC4(CC3)CC(N3CCN(c5ccc6c(c5)CN(C5CCC(=O)NC5=O)C6=O)CC3)C4)cc2)c2ccc3[nH]nc(F)c3c2)CC(C)(C)O1 (stereo not shown) [Compound 62] | > 100 nM |
| CC1(C)CC(=C(c2ccc(N3CCC(F)(CN4CCN(c5ccc6c(c5)CN(C5CCC(=O)NC5=O)C6=O)CC4)CC3)nc2)c2ccc3[nH]nc(F)c3c2)CC(C)(C)O1 (stereo not shown) [Compound 59] | 10 to 100 nM |
| CC1(C)CC(=C(c2ccc(N3CCC(CN4CCN(c5ccc(NC6CCC(=O)NC6=O)c(F)c5)CC4)CC3)cc2)c2ccc3[nH]nc(F)c3c2)CC(C)(C)O1 (stereo not shown) [Compound 115] | > 100 nM |
| CC1(C)CC(=C(c2ccc(N3CCC(N4CCN(c5ccc6c(c5)C(=O)N(C5CCC(=O)NC5=O)C6=O)CC4)CC3)nc2)c2ccc3[nH]nc(F)c3c2)CC(C)(C)O1 (stereo not shown) [Compound 104] | > 100 nM |
| CC1(C)CC(=C(c2ccc(OC3CN(CC4CCN(c5ccc6c(c5)C(=O)N(C5CCC(=O)NC5=O)C6=O)CC4)C3)cc2)c2ccc3[nH]nc(F)c3c2)CC(C)(C)O1 (stereo not shown) [Compound 8] | > 100 nM |
| CC1(C)CC(=C(c2ccc(N3CCC(N4CCN(c5ccc(N6CCC(=O)NC6=O)cc5)CC4)CC3)cc2)c2ccc3[nH]nc(F)c3c2)CC(C)(C)O1 [Compound 78] | > 100 nM |
| CC1(C)CC(=C(c2ccc(N3CCC(CN4CCN(c5cccc(NC6CCC(=O)NC6=O)c5)CC4)CC3)cc2)c2ccc3[nH]nc(F)c3c2)CC(C)(C)O1 (stereo not shown) [Compound 107] | > 100 nM |
| CC1(C)CC(=C(c2ccc(N3CC4(CN(C(=O)CN5CCC(c6ccc(NC7CCC(=O)NC7=O)cc6F)CC5)C4)C3)nc2)c2ccc3[nH]nc(F)c3c2)CC(C)(C)O1 (stereo not shown) [Compound 84] | > 100 nM |
| CC1(C)CC(=C(c2ccc3[nH]nc(F)c3c2)c2c(F)cc(OCCN3CCN(c4ccc5c(c4)C(=O)N(C4CCC(=O)NC4=O)C5=O)CC3)cc2F)CC(C)(C)O1 (stereo not shown) [Compound 23] | > 100 nM |
| CC1(C)CC(=C(c2ccc(N3CCC4(CN(C(=O)CN5Cc6cc7c(cc6C5)C(=O)N(C5CCC(=O)NC5=O)C7)C4)C3)nc2)c2ccc3[nH]nc(F)c3c2)CC(C)(C)O1 (stereo not shown) [Compound 72] | > 100 nM |
| CC1(C)CC(=C(c2ccc3[nH]nc(F)c3c2)c2c(F)cc(N3CCN(C4CN(c5ccc6c(c5)C(=O)N(C5CCC(=O)NC5=O)C6=O)C4)CC3)cc2F)CC(C)(C)O1 (stereo not shown) [Compound 3] | > 100 nM |
| Cn1c(=O)n(C2CCC(=O)NC2=O)c2cccc(C3CCN(CC4CCN(c5ccc(C(=C6CC(C)(C)OC(C)(C)C6)c6ccc7[nH]nc(F)c7c6)cn5)CC4)CC3)c21 (stereo not shown) [Compound 99] | 10 to 100 nM |
| CC1(C)CC(=C(c2ccc(N3CCC4(CC3)CN(C(=O)CN3Cc5cc6c(cc5C3)C(=O)N(C3CCC(=O)NC3=O)C6=O)C4)nc2)c2ccc3[nH]nc(F)c3c2)CC(C)(C)O1 (stereo not shown) [Compound 74] | > 100 nM |
| CC1(C)CC(=C(c2ccc(N3CC(CN4CCN(c5ccc6c(c5)C(=O)N(C5CCC(=O)NC5=O)C6=O)CC4)C3)nc2)c2ccc3[nH]nc(F)c3c2)CC(C)(C)O1 (stereo not shown) [Compound 27] | 10 to 100 nM |
| CC1(C)CC(=C(c2ccc(N3CCN(C4CCN(c5cccc(NC6CCC(=O)NC6=O)c5)CC4)CC3)cc2)c2ccc3[nH]ncc3c2)CC(C)(C)O1 (stereo not shown) [Compound 108] | > 100 nM |
| CC1(C)CC(=C(c2ccc(N3CCN(C4CC5(CCN(c6ccc7c(c6)CN(C6CCC(=O)NC6=O)C7=O)C5)C4)CC3)nc2)c2ccc3[nH]nc(F)c3c2)CC(C)(C)O1 (stereo not shown) [Compound 53] | > 100 nM |
| CC1(C)CC(=C(c2ccc(N3CCC(F)(CNC4CCN(c5ccc6c(c5)CN(C5CCC(=O)NC5=O)C6=O)CC4)CC3)nc2)c2ccc3[nH]nc(F)c3c2)CC(C)(C)O1 (stereo not shown) [Compound 61] | < 10 nM |
| CC1(C)CC(=C(c2ccc(OC3CN(C4CN(c5ccc6c(c5)C(=O)N(C5CCC(=O)NC5=O)C6=O)C4)C3)nc2)c2ccc3[nH]nc(F)c3c2)CC(C)(C)O1 (stereo not shown) [Compound 19] | > 100 nM |
| CC1(C)CC(=C(c2ccc3[nH]nc(F)c3c2)c2c(F)cc(OC3CN(C4CN(c5ccc6c(c5)C(=O)N(C5CCC(=O)NC5=O)C6=O)C4)C3)cc2F)CC(C)(C)O1 (stereo not shown) [Compound 14] | > 100 nM |

Further lines, results first:

| DC50 | Structure (SMILES) |
| --- | --- |
| > 100 nM | CC1(C)CC(=C(c2ccc(N3CCC(N4CCN(c5ccc6c(c5)CN(C5CCC(=O)NC5=O)C6=O)CC4)CC3)cc2)c2ccc3[nH]ncc3c2)CC(C)(C)O1 (stereo not shown) [Compound 58] |
| > 100 nM | CC1(C)CC(=C(c2ccc3[nH]nc(F)c3c2)c2c(F)cc(N3CCN(CC4CN(c5ccc6c(c5)C(=O)N(C5CCC(=O)NC5=O)C6=O)C4)CC3)cc2F)CC(C)(C)O1 (stereo not shown) [Compound 9] |
| < 10 nM | CC1(C)CC(=C(c2ccc(N3CCC(CN4CCN(c5ccc6c(c5)C(=O)N([C@@H]5CCC(=O)NC5=O)C6=O)CC4)CC3)cc2)c2ccc3[nH]ncc3c2)CC(C)(C)O1 [Compound 130] |
| > 100 nM | Cn1nc(N2CCC(=O)NC2=O)c2ccc(C3CCN(CC(=O)N4CC5(C4)CN(c4ccc(C(=C6CC(C)(C)OC(C)(C)C6)c6ccc7[nH]nc(F)c7c6)cn4)C5)CC3)cc21 [Compound 95] |
| > 100 nM | CC1(C)CC(=C(c2ccc(N3CCN(CC4CN(c5ccc6c(c5)C(=O)N(C5CCC(=O)NC5=O)C6=O)C4)CC3)cc2)c2ccc3[nH]nc(F)c3c2)CC(C)(C)O1 (stereo not shown) [Compound 1] |
| 10 to 100 nM | Cn1nc(N2CCC(=O)NC2=O)c2cc(F)c(N3CCN(CC4CCN(c5ccc(C(=C6CC(C)(C)OC(C)(C)C6)c6ccc7[nH]nc(F)c7c6)cn5)CC4)CC3)cc21 [Compound 124] |
| 10 to 100 nM | CC1(C)CC(=C(c2ccc(N3CCC4(CC3)CN(C(=O)CN3Cc5cc6c(cc5C3)C(=O)N(C3CCC(=O)NC3=O)C6)C4)nc2)c2ccc3[nH]nc(F)c3c2)CC(C)(C)O1 (stereo not shown) [Compound 70] |
| < 10 nM | CC1(C)CC(=C(c2ccc(N3CCC(CN4CCN(c5ccc(C(=O)N[C@H]6CCC(=O)NC6=O)cc5)CC4)CC3)nc2)c2ccc3[nH]nc(F)c3c2)CC(C)(C)O1 [Compound 126] |
| > 100 nM | CC1(C)CC(=C(c2ccc(N3CCC4(CC3)CC(CN3CCN(c5ccc6c(c5)CN(C5CCC(=O)NC5=O)C6=O)CC3)C4)nc2)c2ccc3[nH]nc(F)c3c2)CC(C)(C)O1 (stereo not shown) [Compound 54] |
| 10 to 100 nM | CC1(C)CC(=C(c2ccc(N3CCC(N4CCN(c5ccc6c(c5)CN([C@@H]5CCC(=O)NC5=O)C6=O)CC4)CC3)cc2)c2ccc3[nH]nc(F)c3c2)CC(C)(C)O1 [Compound 134] |
| > 100 nM | CC1(C)CC(=C(c2ccc(N3CCN(CC4CCN(c5ccc6c(c5)C(=O)N(C5CCC(=O)NC5=O)C6=O)CC4)CC3)nc2)c2ccc3[nH]nc(F)c3c2)CC(C)(C)O1 (stereo not shown) [Compound 4] |
| > 100 nM | CC1(C)CC(=C(c2ccc(OC3CCN(C4CCN(c5ccc6c(c5)CN(C5CCC(=O)NC5=O)C6=O)CC4)CC3)nc2)c2ccc3[nH]nc(F)c3c2)CC(C)(C)O1 (stereo not shown) [Compound 60] |
| < 10 nM | CC1(C)CC(=C(c2ccc3[nH]nc(F)c3c2)c2c(F)cc(N3CCC(N4CCN(c5ccc6c(c5)C(=O)N(C5CCC(=O)NC5=O)C6=O)CC4)CC3)cc2F)CC(C)(C)O1 (stereo not shown) [Compound 11] |
| < 10 nM | CC1(C)CC(=C(c2ccc(N3CCC4(CC3)CC(N3CCN(c5ccc(C(=O)N[C@H]6CCC(=O)NC6=O)cc5)CC3)C4)nc2)c2ccc3[nH]nc(F)c3c2)CC(C)(C)O1 [Compound 127] |
| > 100 nM | CC1(C)CC(=C(c2ccc(N3CCC4(CC3)CC(N3CC5(CN(c6ccc7c(c6)CN(C6CCC(=O)NC6=O)C7=O)C5)C3)C4)nc2)c2ccc3[nH]nc(F)c3c2)CC(C)(C)O1 (stereo not shown) [Compound 43] |
